Laboratory results taken from patent US20220324817A1, “QUINAZOLINE PRODRUGS FOR THE TREATMENT OF VIRAL INFECTIONS AND FURTHER DISEASES” (Janssen Sciences Ireland Unlimited Company, priority 2019, published 2022).

Key:
Assay type in all cases: in vitro ADME
[1] = Intrinsic clearance in human liver microsomes; conditions: 37° C., 1 μM compound, 1 mg/mL microsomal protein
Experimental: (§1) Intrinsic clearance (CLint). CLint was determined in rat and human liver microsomes. Incubations were performed at 37° C., at a concentration of 1 μM of compound, and a microsomal protein concentration of 1 mg/mL. Serial samples were removed at intervals of up to 60 min and analyzed for the concentration of compound to determine its intrinsic clearance rate. Compound was incubated in rat and human hepatocytes (10^6 cells/mL) at 1 μM for 0, 10, 20, 40, 60 and 120 min. Serial samples were removed at intervals of up to 120 min and analyzed for the concentration of compound to determine its intrinsic clearance rate. Permeability and Efflux in vitro. The in vitro permeability and potential to be transported by P-glycoprotein (P-gp) was determined using an MDCK cell line transfected with human MDR1 (P-glycoprotein). […] Permeability in the A→B direction in absence and presence of GF120918 and in the B→A direction in absence of GF120918 was measured by monitoring the appearance of the test compound on the opposite side of the membrane using a specific LC-MS/MS method. The efflux ratio (B→*A-GF120918/A→B-GF120918) was calculated to determine whether the test compound was a P-gp substrate. […] Plasma stability is measured in rat and human plasma for 7 or 24 h at 37° C. […] Samples were analyzed by LC-MS/MS (without internal standard). […] Half-life (t1/2 in hours) is calculated from those data. […]

[2] = Intrinsic clearance in rat liver microsomes; conditions: 37° C., 1 μM compound, 1 mg/mL microsomal protein
Experimental: as §1

[3] = test system: P-glycoprotein (human MDR1); experiment: Permeability and efflux in vitro in MDCK-MDR1 cell line; conditions: dog, MDCK-MDR1 cells, in absence of GF120918
Experimental: as §1

Question: For `CCCC[C@H](CO)Nc1nc(NC(=O)OCC)nc2c(C)cccc12` [Compound 1, ethyl (R)-(4-((1-hydroxyhexan-2-yl)amino)-8-methylquinazolin-2-yl)carbamate], which microsomal CLint at 1 μM [1] is on record?
Answer: 47 µL/min/mg

Question: What about the microsomal CLint at 1 μM [2] of the same molecule?
Answer: 109 µL/min/mg

Question: And the Papp A→B [3]?
Answer: 8.22 ×10⁻⁶ cm/s

Question: And the efflux ratio ([3]; read-out: Efflux ratio B -> A/A -> B)?
Answer: 4.5

Question: With `CCCC[C@H](COC(=O)C(C)C)Nc1nc(NC(=O)C(C)C)nc2c(C)cccc12` [Compound 2, (R)-2-((2-isobutyramido-8-methylquinazolin-4-yl)amino)hexyl isobutyrate] as the molecule, how does the microsomal CLint at 1 μM [2] read?
Answer: 84 µL/min/mg
